US20020004220A1 (priority 1999, published 2002)
Converted amounts (≈) assume the structure as drawn.

Legend:
Escherichia coli = test: microbe, parasite or virus in culture; assay type: cell-based; conditions: read-out: MIC (MIC99)
Staphylococcus aureus = test: microbe, parasite or virus in culture; assay type: cell-based; conditions: read-out: MIC (MIC99)

SMILES | MIC99 (Escherichia coli) [µg/mL] | MIC99 (Staphylococcus aureus) [µg/mL]
CCn1cc(C(=O)O)c(=O)c2cc(F)c(N3CCNCC3)cc21 [Norfloxacin] | 0.045 (≈ 0.141 µM) | 0.85 (≈ 2.66 µM)
CO[C@H]1/C=C/O[C@@]2(C)Oc3c(C)c(O)c4c(O)c(c(/C=N/N5CCN(C)CC5)c(O)c4c3C2=O)NC(=O)/C(C)=C\C=C\[C@H](C)[C@H](O)[C@@H](C)[C@@H](O)[C@@H](C)[C@H](OC(C)=O)[C@@H]1C [Rifampicin] | 5 (≈ 6.08 µM) | 0.004 (≈ 0.00486 µM)
CN[C@H](CC(C)C)C(=O)N[C@H]1C(=O)N[C@@H](CC(N)=O)C(=O)N[C@H]2C(=O)N[C@H]3C(=O)N[C@H](C(=O)N[C@H](C(=O)O)c4cc(O)cc(O)c4-c4cc3ccc4O)[C@H](O)c3ccc(c(Cl)c3)Oc3cc2cc(c3O[C@@H]2O[C@H](CO)[C@@H](O)[C@H](O)[C@H]2O[C@H]2C[C@](C)(N)[C@H](O)[C@H](C)O2)Oc2ccc(cc2Cl)[C@H]1O [Vancomycin] |  | 0.65 (≈ 0.449 µM)
CC1(C)S[C@@H]2[C@H](NC(=O)Cc3ccccc3)C(=O)N2[C@H]1C(=O)O [Penicillin] | 3 (≈ 8.97 µM) | 0.024 (≈ 0.0718 µM)
O=C(N[C@H](CO)[C@H](O)c1ccc([N+](=O)[O-])cc1)C(Cl)Cl [Chloramphenicol] | 1.9 (≈ 5.88 µM) | 1.9 (≈ 5.88 µM)
NC[C@H]1O[C@H](O[C@H]2[C@H](O)[C@@H](O[C@H]3O[C@H](CO)[C@@H](O)[C@H](N)[C@H]3O)[C@H](N)C[C@@H]2N)[C@H](N)C[C@@H]1O [Tobramycin] | 1.2 (≈ 2.57 µM) | 0.27 (≈ 0.578 µM)
